Assay results reported in patent US20230167467A1, “METHODS AND COMPOSITIONS FOR THE PRODUCTION OF ISOBUTENE” (University of Alaska Anchorage, priority 2020, published 2023).

Assays:
[1] = system: Engineered strains of E. coli; type: cell-based
[2] = purified MVD on 3-HIV; cited from earlier work
[3] = after solvent exposure, vs positive control

## CC(C)=O [acetone]
[1]
  expression of accBC (fatty acid biosynthesis): downregulated
  expression of bssRS (decreasing biofilm material): upregulated
  expression of chaperone genes groLS and dnaJK: increased expression
  expression of gad genes: increase in expression
  expression of gadABCE (acid resistance via GABA production): upregulated
  expression of glpABC (glycerol to glycerone phosphate): increased in expression
  expression of heat shock proteins and chaperones hslJORUV: upregulation
  expression of ibpAB and clpAB (protein protection and repair): increased
  expression of marA: upregulated
[1]; [3]
  change in expression of gene adiA: 1.50 ± 0.91
  change in expression of gene adiC: −0.54 ± 1.10
  change in expression of gene adiY: −0.57 ± 0.71
  change in expression of gene bhsA: 4.49 ± 0.62
  change in expression of gene bssR: 2.34 ± .46
  change in expression of gene bssS: 5.02 ± .88
  change in expression of gene clpA: 1.92 ± .68
  change in expression of gene clpB: 4.51 ± .69
  change in expression of gene clpP: 1.39 ± 0.63
  change in expression of gene coaA: −3.10 ± 1.0
  change in expression of gene coaD: 0.05 ± 1.01
  change in expression of gene cspA: −4.58 ± 0.64
  change in expression of gene cspB: −5.17 ± 1.49
  change in expression of gene cspC: −0.95 ± .98
  change in expression of gene cspD: 2.52 ± 0.63
  change in expression of gene cspE: −2.45 ± 0.72
  change in expression of gene cspF: −5.06 ± 1.34
  change in expression of gene dhaK: 0.26 ± 0.67
  change in expression of gene dhaL: −0.41 ± 0.74
  change in expression of gene dnaJ: 2.96 ± 0.74
  change in expression of gene dnaK: 4.58 ± 0.66
  change in expression of gene fabA: −0.85 ± 0.84
  change in expression of gene fabB: 1.61 ± 0.72
  change in expression of gene fabD: −1.74 ± 0.59
  change in expression of gene flgA: −2.14 ± 1.68
  change in expression of gene flgB: −4.07 ± 1.67
  change in expression of gene flgC: −4.24 ± 2.06
  change in expression of gene flgD: −4.39 ± 2
  change in expression of gene flgE: −4.02 ± 1.30
  change in expression of gene flgF: −2.98 ± 1.7
  change in expression of gene flgG: −4.98 ± 1.68
  change in expression of gene flgH: −2.24 ± 1.82
  change in expression of gene gabD: 0.73 ± 1.41
  change in expression of gene gabP: −1.06 ± 1.42
  change in expression of gene gabT: 0.34 ± 1.38
  change in expression of gene gadA: 4.57 ± 0.70
  change in expression of gene gadB: 4.53 ± 0.82
  change in expression of gene gadC: 4.83 ± 0.82
  change in expression of gene gadE: 2.23 ± .62
  change in expression of gene gadW: 1.58 ± 1
  change in expression of gene gadX: 1.71 ± 0.59
  change in expression of gene gadY: 0.05 ± 0.83
  change in expression of gene glpA: 4.83 ± 0.91
  change in expression of gene glpB: 2.81 ± 0.69
  change in expression of gene glpC: 3.12 ± 0.87
  change in expression of gene groL: 4.18 ± 0.58
  change in expression of gene groS: 4.58 ± 0.51
  change in expression of gene hchA: 4.64 ± 0.64
  change in expression of gene hslJ: −0.10 ± 0.75
  change in expression of gene hslO: 2.78 ± 0.69
  change in expression of gene hslR: 3.01 ± 0.70
  change in expression of gene hslU: 2.69 ± 0.59
  change in expression of gene hslV: 2.24 ± 0.67
  change in expression of gene ibpA: 5.64 ± 1.22
  change in expression of gene ibpB: 6.70 ± 1.51
  change in expression of gene lhgO: 1.82 ± 1.73
  change in expression of gene lipA: −1.03 ± 0.69
  change in expression of gene lipB: −1.11 ± 0.75
  change in expression of gene narG: 2.69 ± 0.70
  change in expression of gene narH: 2.94 ± 0.66
  change in expression of gene narI: 1.48 ± 1.02
  change in expression of gene narJ: 1.75 ± 0.74
  change in expression of gene narK: 0.21 ± 0.96
  change in expression of gene potA: −3.62 ± 0.91
  change in expression of gene potB: −2.22 ± 1.43
  change in expression of gene potC: −3.06 ± 1.45
  change in expression of gene pspA: 2.10 ± 0.60
  change in expression of gene pspB: 0.76 ± 0.80
  change in expression of gene rpoA: −0.20 ± 0.47
  change in expression of gene rpoB: −0.26 ± 0.43
  change in expression of gene rpoC: −0.29 ± 0.43
  change in expression of gene rpoD: 1.41 ± 0.72
  change in expression of gene rpoE: −0.26 ± 0.66
  change in expression of gene rpoH: 1.72 ± 0.55
  change in expression of gene rpoN: −1.18 ± 0.54
  change in expression of gene rpoS: 1.63 ± 0.51
  change in expression of gene rpoZ: −1.83 ± 0.60
  change in expression of gene spy: 1.90 ± 0.95
  change in expression of gene tatA: −1.15 ± 0.57
  change in expression of gene tatB: −1.35 ± 0.65
  change in expression of gene tatC: −2.55 ± 1.23
  change in expression of gene tatD: −1.90 ± 1.23
  change in expression of gene tatE: 0.41 ± 0.70
[1]; vs control, Bon Ferroni corrected p-value<0.05
  number of genes with significant changes in expression: 399 genes

B1: MVD: mevalonate diphosphate decarboxylase of Saccharomyces cerevisiae, enzyme and gene/transcript (optimized gene SEQ ID NO:2) (protein)
chain: MTVYTASVTAPVNIATLKYWGKRDTKLNLPTNSSISVTLSQDDLRTLTSAATAPEFERDTLWLNGEPHSIDNERTQNCLRDLRQLRKEMESKDASLPTLSQWKLHIVSENNFPTAAGLASSAAGFAALVSAIAKLYQLPQSTSEISRIARKGSGSACRSLFGGYVAWEMGKAEDGHDSMAVQIADSSDWPQMKACVLVVSDIKKDVSSTQGMQLTVATSELFKERIEHVVPKRFEVMRKAIVEKDFATFAKETMMDSNSFHATCLDSFPPIFYMNDTSKRIISWCHTINQFYGETIVAYTFDAGPNAVLYYLAENESKLFAFIYKLFGSVPGWDKKFTTEQLEAFNHQFESSNFTARELDLELQKDVARVILTQVGSGPQETNESLIDAKTGLPKE
modifications: optimized gene; MVD optimized gene sequence
[2]
  Isobutene production: 6.44±0.95 pmol*min-1 *mg protein-1
